Experimental findings from BindingDB's records for doi:10.1016/j.bmcl.2019.04.009 (Wannan Medical College, 2019) are described below.

The target of the assay is Epidermal growth factor receptor (Homo sapiens, UniProt P00533). Briefly: Inhibition of EGFR L858R mutant (unknown origin) using polyE4Y1 as substrate measured after 60 mins.

One may read the IC50 as the concentration that inhibits the measured activity by half. A higher IC50 goes with a need for much substance.

Sequence of Epidermal growth factor receptor (P00533 25-1210 L858R limits assumed): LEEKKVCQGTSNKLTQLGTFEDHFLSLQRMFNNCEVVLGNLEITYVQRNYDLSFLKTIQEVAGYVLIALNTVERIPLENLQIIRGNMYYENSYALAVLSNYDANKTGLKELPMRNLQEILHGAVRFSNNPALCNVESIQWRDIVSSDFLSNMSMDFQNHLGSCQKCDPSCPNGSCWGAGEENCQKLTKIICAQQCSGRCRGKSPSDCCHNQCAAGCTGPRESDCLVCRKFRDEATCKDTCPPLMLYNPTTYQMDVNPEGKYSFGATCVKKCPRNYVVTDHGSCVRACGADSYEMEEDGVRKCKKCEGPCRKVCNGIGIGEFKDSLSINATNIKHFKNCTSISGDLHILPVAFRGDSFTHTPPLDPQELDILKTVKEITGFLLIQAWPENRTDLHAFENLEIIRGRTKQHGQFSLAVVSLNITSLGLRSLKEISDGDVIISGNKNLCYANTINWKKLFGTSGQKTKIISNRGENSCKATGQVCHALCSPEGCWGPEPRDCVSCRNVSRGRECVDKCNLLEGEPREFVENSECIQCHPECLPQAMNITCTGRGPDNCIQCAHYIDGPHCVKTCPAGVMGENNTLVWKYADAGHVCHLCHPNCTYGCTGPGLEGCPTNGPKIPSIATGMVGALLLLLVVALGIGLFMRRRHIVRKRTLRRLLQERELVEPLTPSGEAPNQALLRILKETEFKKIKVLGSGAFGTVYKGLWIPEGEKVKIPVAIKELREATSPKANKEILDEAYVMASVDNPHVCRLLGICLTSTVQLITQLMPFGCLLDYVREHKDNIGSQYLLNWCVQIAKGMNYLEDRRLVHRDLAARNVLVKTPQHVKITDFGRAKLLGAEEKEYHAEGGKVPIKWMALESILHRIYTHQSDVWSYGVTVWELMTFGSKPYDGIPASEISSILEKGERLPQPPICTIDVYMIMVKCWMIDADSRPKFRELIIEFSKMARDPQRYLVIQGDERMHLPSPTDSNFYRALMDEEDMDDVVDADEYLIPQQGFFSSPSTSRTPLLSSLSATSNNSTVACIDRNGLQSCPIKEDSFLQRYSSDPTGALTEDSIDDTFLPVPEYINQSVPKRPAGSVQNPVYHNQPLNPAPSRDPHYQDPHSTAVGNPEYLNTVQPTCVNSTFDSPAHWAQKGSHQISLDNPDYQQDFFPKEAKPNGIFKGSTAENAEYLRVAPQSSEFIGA

Regarding `C[C@H]1[C@H](C)CC[C@]2(C(=O)O)CC[C@]3(COC(=O)/C=C/c4ccc(O)cc4)C(=CC[C@@H]4[C@@]5(C)CC[C@H](O)C(C)(C)[C@@H]5CC[C@]43C)[C@H]12` [27-trans-p-coumaroyloxyursolic acid], the IC50 came to 56 nM.
